# Structures can show the parent of a compound that is named as a salt.
# Target: T1, 5-HT2A receptor (Homo sapiens, UniProt P28223)
# T1 construct: expressed in transfected cells; host or cells: NIH3T3 cells, pSI expression vector
# Assay: R-SAT functional receptor assay
# Assay type: cell-based
# Settings: for Emax: 120 h, read-out: 5HT2A % INH; for IC50: Table 5, read-out: 5HT2A pIC50 (converted)
# T1 sequence (P28223 whole entry): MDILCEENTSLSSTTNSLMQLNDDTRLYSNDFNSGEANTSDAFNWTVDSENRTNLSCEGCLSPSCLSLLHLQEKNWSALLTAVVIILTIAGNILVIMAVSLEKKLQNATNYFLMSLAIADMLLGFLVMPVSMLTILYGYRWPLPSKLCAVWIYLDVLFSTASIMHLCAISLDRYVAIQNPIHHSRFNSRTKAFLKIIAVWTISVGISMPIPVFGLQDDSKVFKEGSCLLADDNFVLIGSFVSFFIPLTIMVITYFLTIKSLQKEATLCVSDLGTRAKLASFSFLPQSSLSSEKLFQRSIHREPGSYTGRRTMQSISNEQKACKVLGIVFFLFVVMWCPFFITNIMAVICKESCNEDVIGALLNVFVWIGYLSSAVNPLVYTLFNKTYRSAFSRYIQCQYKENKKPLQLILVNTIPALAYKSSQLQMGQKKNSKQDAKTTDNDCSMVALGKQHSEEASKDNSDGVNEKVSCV
Compound,Emax [%],IC50 [nM],pIC50 (average) (inverse agonist),Efficacy (average) (percent maximal repression compared to ritanserin)
"CC(C)COc1ccc(CC(=O)N(Cc2ccc(F)cc2)C2CCN(CCC3OC(C)CC(C)O3)CC2)cc1 (stereo not drawn) [Example 118AF37-88, N-{1-[2-(4,6-Dimethyl-1,3-dioxan-2-yl)ethyl]piperidin-4-yl}-N-(4-fluorobenzyl)-2-(4-isobutoxyphenyl)acetamide, oxalate]",105,0.631,,
"O=C(Cc1ccc2occc2c1)N(Cc1ccc(F)cc1)C1CCN(CCC2OCCCO2)CC1 [Example 128NLS22-A, 2-Benzofuran-5-yl-N-{1-[2-(1,3-dioxan-2-yl)ethyl]piperidin-4-yl}-N-(4-fluorobenzyl)acetamide, tartrate]",98,3.16,,
N-(2-Phenylethyl)-N-(piperidin-4-yl)-4-methoxyphenylmethylacetamide [Example 26HCH80-2],,,7.78,89

# — patent US20080051429A1, “USE OF 4-AMINO-PIPERIDINES FOR TREATING SLEEP DISORDERS” (priority 2006, published 2008)
